Values quoted from earlier work, collected in US20050059682A1, “Compositions and methods for treatment of cancer” (priority 2003, published 2005).

Tests used:
prostate cancer = details: single-agent chemotherapy of prostate cancer
HDAC = details: in vitro or in vivo for SAHA, SBHA, CBHA

| Compound | efficacy as single agent (prostate cancer) | also measured |
| --- | --- | --- |
| O=c1[nH]cc(F)c(=O)[nH]1 [5-fluorouracil] | minimal efficacy |  |
| O=C(/C=C/c1cccc(C(=O)NO)c1)NO [CBHA, m-carboxy-cinnamic acid bishydroxamic acid] |  | concentration at which HDAC is inhibited (HDAC): micromolar concentration or lower |
| C/C=C1\NC(=O)[C@H]2CSSCC/C=C/[C@H](CC(=O)N[C@H](C(C)C)C(=O)N2)OC(=O)[C@H](C(C)C)NC1=O [FR901228] |  | concentration at which HDAC is inhibited (HDAC): micromolar concentrations |
| CC(/C=C/C(=O)NO)=C\[C@@H](C)C(=O)c1ccc(N(C)C)cc1 [TSA, trichostatin A] |  | inhibition of mammalian HDAC (mammalian HDAC): potent inhibitor |
| N.N.[Cl][Pt][Cl] [cisplatin] | minimal efficacy |  |
| O=P1(N(CCCl)CCCl)NCCCO1 (stereo not shown) [cyclophosphamide] | minimal efficacy |  |
| Nc1ncn([C@H]2C[C@H](O)[C@@H](CO)O2)c(=O)n1 [decitabine, 5-aza-2′-deoxycytidine] |  | half life in vivo: short half life; tissue distribution (in vivo): excellent tissue distribution |
| COc1cccc2c1C(=O)c1c(O)c3c(c(O)c1C2=O)C[C@@](O)(C(=O)CO)C[C@@H]3O[C@H]1C[C@H](N)[C@H](O)[C@H](C)O1 [doxorubicin] | minimal efficacy |  |
| C[C@]12CC[C@@H]3c4ccc(OC(=O)N(CCCl)CCCl)cc4CC[C@H]3[C@@H]1CC[C@@H]2O [estramustine] | minimal efficacy |  |
| CN(Cc1cnc2nc(N)nc(N)c2n1)c1ccc(C(=O)N[C@@H](CCC(=O)O)C(=O)O)cc1 [methotrexate] | minimal efficacy |  |
| O=C1c2c(O)ccc(O)c2C(=O)c2c(NCCNCCO)ccc(NCCNCCO)c21 [mitoxantrone] | minimal efficacy |  |
| depudecin |  | concentration at which HDAC is inhibited (HDAC): micromolar concentrations |
